Source: PubChem BioAssay AID1919006 (Molecular Pharmacology Branch, DTP, NCI, 2023)
Each block holds one compound with its values, some of them ahead of it.

System: 885512-296-R-J2-PDC complex spheroid growth, % test/control
Test: Anticancer human tumor 885512-296-R-J2-PDC patient-derived breast carcinoma cell line growth inhibition [AhR]
Settings: for IC50: curve of first compound; for viability, T/C: stronger effect = lower value
From the text: Multicellular complex tumor spheroid response to aryl hydrocarbon receptor antagonists in combination with a variety of drugs and investigational agents in selected tumor cell lines
The current study was undertaken to assess response to aryl hydrocarbon receptor antagonists in combination with standard-of-care drugs and investigational agents in solid tumor complex spheroid models. Complex spheroids include a stromal component modeled by human endothelial cells (HUVEC) and fibroblasts modeled by human mesenchymal stem cells (MSCs). The concentration ranges selected for each drug and investigational agent were based upon clinically achievable concentrations if the clinical Cmax of the agent was known.
Compounds. The drugs and investigational agents: BAY 2416964 (NSC825713), GNF351 (NSC835774), CH-223191 (NSC835775), CPI-455 (NSC825282), aza-TdCyd (NSC777586), decitabine (NSC127716), belinostat (NSC758774), entinostat (NSC756642), pevonedistat (NSC761192), tazemetostat (NSC777109), talazoparib (NSC765396), olaparib (NSC753686), selinexor (NSC780203), nedisertib (M3814, NSC802822), bortezomib (NSC756655), venetoclax (NSC766270), doxorubicin (NSC123127), elimusertib (BAY189344, NSC800525), ceralasertib (AZD6738, NSC777638), TAK-243 (NSC785004), alisertib (NSC759677), etoposide (NSC141540), topotecan (NSC609699), eribulin (NSC707389), gemcitabine (NSC613327), carboplatin (NSC241240), cisplatin (NSC119875), and SN-38 (NSC673596) were obtained from the National Cancer Institute (NCI) Developmental Therapeutics Program Chemical Repository (32). The FDA-approved anticancer drug set is available from the Developmental Therapeutics Program at https://dtp.cancer.gov/organization/dscb/obtaining/available plates.htm. […] The stock solutions were prepared in dimethyl sulfoxide (DMSO, Sigma-Aldrich, St. Louis, MO, cat. D2650), except for the platinum compounds which were prepared in saline (Quality Biological, Gaithersburg, MD, cat. 114-055-101), at 800-fold the tested concentration and stored at -70 degrees C prior to their use. All drugs and investigational agents were tested over a range starting from a high concentration at or near the clinical Cmax and decreasing in half-log increments. If the clinical Cmax for an agent had not been determined, the highest concentration tested was 10 microM (Table 1).
Cell Culture. All cells were maintained in an incubator at 37 degrees C and 5% CO2 with 95% humidity. The PDC lines were cultured according to standard operating procedures established by the NCI PDMR (https://pdmr.cancer.gov). Briefly, all PDCs were thawed and cultured in Matrigel-coated flasks prepared with a working solution of 1X Ham's F-12 nutrient mix, without supplementation (Invitrogen, Waltham, MA, cat. 11765054), 100 U/mL penicillin-streptomycin (Invitrogen, cat. 15140122), and 2.5% Matrigel (Corning Inc., Corning, NY, cat. 354248) for the first three passages. All PDCs were cultured in complete DMEM/F-12 media containing advanced DMEM/F-12 (Invitrogen, cat. 12634028), 4.9% defined fetal bovine serum, heat inactivated (HyClone Laboratories Inc., Logan, UT, cat. SH30070.03HI), 389 ng/mL hydrocortisone (Sigma-Aldrich, cat. H4001), 9.7 ng/mL human EGF recombinant protein (Invitrogen, cat. PHG0313), 23.4 microg/mL adenine (Sigma-Aldrich, cat. A2786), 97.3 U/mL penicillin-streptomycin (Invitrogen, cat. 15140122), 1.9 mM L-glutamine (Invitrogen, cat. 25030081), and 9.7 microM Y-27632 dihydrochloride (Tocris Bioscience, Bristol, United Kingdom, cat. 1254). The PDCs were cultured in complete DMEM/F12 media without 10 microM Y-27632 dihydrochloride for at least two passages prior to the screen. The established cell lines NCI-H1341 and […] were cultured in DMEM/F-12, HEPES (Invitrogen, cat. 11330032), 5% defined fetal bovine serum (HyClone Laboratories Inc., cat. SH30070.03), ITS premix universal culture supplement [insulin (5 microg/mL), transferrin (5 microg/mL), and selenious acid (5 ng/mL)] […]

[1] = second compound 0.1 µM, first compound 0.0316 µM
[2] = second compound 0.1 µM, first compound 0.1 µM
[3] = second compound 0.1 µM, first compound 0.316 µM
[4] = second compound 0.1 µM, first compound 1 µM
[5] = second compound 0.316 µM, first compound 0.0316 µM
[6] = second compound 0.316 µM, first compound 0.1 µM
[7] = second compound 0.316 µM, first compound 0.316 µM
[8] = second compound 0.316 µM, first compound 1 µM
[9] = second compound 1 µM, first compound 0.0316 µM
[10] = second compound 1 µM, first compound 0.1 µM
[11] = second compound 1 µM, first compound 0.316 µM
[12] = second compound 1 µM, first compound 1 µM
[13] = second compound 3.16 µM, first compound 0.0316 µM
[14] = second compound 3.16 µM, first compound 0.1 µM
[15] = second compound 3.16 µM, first compound 0.316 µM
[16] = second compound 3.16 µM, first compound 1 µM
[17] = second compound 10 µM, first compound 0.0316 µM
[18] = second compound 10 µM, first compound 0.1 µM
[19] = second compound 10 µM, first compound 0.316 µM
[20] = second compound 10 µM, first compound 1 µM
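Note: spheroids exposed to compounds for seven days.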

- IC50 (second compound 0.1 µM): 5.31 µM
- IC50 (second compound 0.316 µM): 5.22 µM
- IC50 (second compound 1 µM): 3.86 µM
- IC50 (second compound 3.16 µM): < 0.0316 µM
- IC50 (second compound 10 µM): < 0.0316 µM
Compound: CC1(C)CCC(CN2CCN(c3ccc(C(=O)NS(=O)(=O)c4ccc(NCC5CCOCC5)c([N+](=O)[O-])c4)c(Oc4cnc5[nH]ccc5c4)c3)CC2)=C(c2ccc(Cl)cc2)C1 + Cc1cncc(-c2nc(NCCc3c[nH]c4ccccc34)c3ncn(C(C)C)c3n2)c1
- viability, T/C [1]: 108%
- viability, T/C [2]: 120%
- viability, T/C [3]: 100%
- viability, T/C [4]: 97.9%
- viability, T/C (second compound 0.1 µM, first compound 3.16 µM): 73%
- viability, T/C (second compound 0.1 µM, first compound 10 µM): 21.9%
- viability, T/C [5]: 95.8%
- viability, T/C [6]: 98.3%
- viability, T/C [7]: 97%
- viability, T/C [8]: 100%
- viability, T/C (second compound 0.316 µM, first compound 3.16 µM): 68.4%
- viability, T/C (second compound 0.316 µM, first compound 10 µM): 26.2%
- viability, T/C [9]: 87.5%
- viability, T/C [10]: 84.5%
- viability, T/C [11]: 77.8%
- viability, T/C [12]: 71.8%
- viability, T/C (second compound 1 µM, first compound 3.16 µM): 57%
- viability, T/C (second compound 1 µM, first compound 10 µM): 23.2%
- viability, T/C [13]: 42.2%
- viability, T/C [14]: 49.5%
- viability, T/C [15]: 50.7%
- viability, T/C [16]: 41.4%
- viability, T/C (second compound 3.16 µM, first compound 3.16 µM): 39.7%
- viability, T/C (second compound 3.16 µM, first compound 10 µM): 29.8%
- viability, T/C [17]: 12.7%
- viability, T/C [18]: 13.7%
- viability, T/C [19]: 14.3%
- viability, T/C [20]: 12.4%
- viability, T/C (second compound 10 µM, first compound 3.16 µM): 13.8%
- viability, T/C (second compound 10 µM, first compound 10 µM): 10.1%

- IC50 (second compound 0.1 µM): 0.00522 µM
- IC50 (second compound 0.316 µM): 0.00567 µM
- IC50 (second compound 1 µM): 0.00545 µM
- IC50 (second compound 3.16 µM): 0.00542 µM
- IC50 (second compound 10 µM): 0.00575 µM
Compound: CC(C)CC(NC(=O)C(Cc1ccccc1)NC(=O)c1cnccn1)B(O)O (stereo not given) + CC(CO)NC(=O)c1cc(-c2ccc(Cl)cc2)nn(-c2cnn(C)c2)c1=O
- viability, T/C (second compound 0.1 µM, first compound 0.000949 µM): 97%
- viability, T/C (second compound 0.1 µM, first compound 0.003 µM): 86.5%
- viability, T/C (second compound 0.1 µM, first compound 0.00949 µM): 10.7%
- viability, T/C (second compound 0.1 µM, first compound 0.03 µM): 0.69%
- viability, T/C (second compound 0.1 µM, first compound 0.0949 µM): 0.12%
- viability, T/C (second compound 0.1 µM, first compound 0.3 µM): 0.12%
- viability, T/C (second compound 0.316 µM, first compound 0.000949 µM): 96.1%
- viability, T/C (second compound 0.316 µM, first compound 0.003 µM): 99.3%
- viability, T/C (second compound 0.316 µM, first compound 0.00949 µM): 11.2%
- viability, T/C (second compound 0.316 µM, first compound 0.03 µM): 0.78%
- viability, T/C (second compound 0.316 µM, first compound 0.0949 µM): 0.16%
- viability, T/C (second compound 0.316 µM, first compound 0.3 µM): 0.08%
- viability, T/C (second compound 1 µM, first compound 0.000949 µM): 98.4%
- viability, T/C (second compound 1 µM, first compound 0.003 µM): 94%
- viability, T/C (second compound 1 µM, first compound 0.00949 µM): 9.2%
- viability, T/C (second compound 1 µM, first compound 0.03 µM): 0.72%
- viability, T/C (second compound 1 µM, first compound 0.0949 µM): 0.26%
- viability, T/C (second compound 1 µM, first compound 0.3 µM): 0.12%
- viability, T/C (second compound 3.16 µM, first compound 0.000949 µM): 89.4%
- viability, T/C (second compound 3.16 µM, first compound 0.003 µM): 91.6%
- viability, T/C (second compound 3.16 µM, first compound 0.00949 µM): 11.7%
- viability, T/C (second compound 3.16 µM, first compound 0.03 µM): 0.76%
- viability, T/C (second compound 3.16 µM, first compound 0.0949 µM): 0.16%
- viability, T/C (second compound 3.16 µM, first compound 0.3 µM): 0.1%
- viability, T/C (second compound 10 µM, first compound 0.000949 µM): 91.6%
- viability, T/C (second compound 10 µM, first compound 0.003 µM): 113%
- viability, T/C (second compound 10 µM, first compound 0.00949 µM): 9.64%
- viability, T/C (second compound 10 µM, first compound 0.03 µM): 0.68%
- viability, T/C (second compound 10 µM, first compound 0.0949 µM): 0.18%
- viability, T/C (second compound 10 µM, first compound 0.3 µM): 0.14%

- IC50 (second compound 0.1 µM): 0.0354 µM
- IC50 (second compound 0.316 µM): 0.042 µM
- IC50 (second compound 1 µM): 0.0405 µM
- IC50 (second compound 3.16 µM): 0.041 µM
- IC50 (second compound 10 µM): 0.0118 µM
Compound: CC1COCCN1c1cc(-c2ccnn2C)c2ccnc(-c3ccn[nH]3)c2n1 (stereo not given) + Cc1ccccc1N=Nc1ccc(NC(=O)c2ccnn2C)c(C)c1
- viability, T/C (second compound 0.1 µM, first compound 0.00316 µM): 97.7%
- viability, T/C (second compound 0.1 µM, first compound 0.01 µM): 97.6%
- viability, T/C [1]: 53.6%
- viability, T/C [2]: 11.1%
- viability, T/C [3]: 3.35%
- viability, T/C [4]: 2.33%
- viability, T/C (second compound 0.316 µM, first compound 0.00316 µM): 108%
- viability, T/C (second compound 0.316 µM, first compound 0.01 µM): 87.6%
- viability, T/C [5]: 65.3%
- viability, T/C [6]: 10.9%
- viability, T/C [7]: 3.03%
- viability, T/C [8]: 2.67%
- viability, T/C (second compound 1 µM, first compound 0.00316 µM): 98.4%
- viability, T/C (second compound 1 µM, first compound 0.01 µM): 85.5%
- viability, T/C [9]: 61.6%
- viability, T/C [10]: 12%
- viability, T/C [11]: 4.35%
- viability, T/C [12]: 2.65%
- viability, T/C (second compound 3.16 µM, first compound 0.00316 µM): 89.8%
- viability, T/C (second compound 3.16 µM, first compound 0.01 µM): 86.3%
- viability, T/C [13]: 61.6%
- viability, T/C [14]: 10.3%
- viability, T/C [15]: 3.42%
- viability, T/C [16]: 2.63%
- viability, T/C (second compound 10 µM, first compound 0.00316 µM): 57.1%
- viability, T/C (second compound 10 µM, first compound 0.01 µM): 47.7%
- viability, T/C [17]: 38.3%
- viability, T/C [18]: 7.15%
- viability, T/C [19]: 2.64%
- viability, T/C [20]: 2.57%
